The record followed here is patent US10520504B2, “Fluorescent polybranched probes for detecting bacteria and/or fungi in vitro and in vivo” (priority 2014, dated 2019).

“Also recorded” adds a separate entry of the source. Numbered stars: 1 amine (or outer) side, 2 acyl side, 3 side chain; on linkers, the order of the positions; unused ones are H or OH. Bridge positions count the residues as written; N and C are the ends. Square brackets hold non-standard residues; d marks the D form. Ends that are not written are not given here. Peptide text beside a SMILES is read from it. I, II: the chains in the order shown. * marks the point of attachment. ξ: configuration not given here. X2 = CN(C)c1ccc2c(c1)Oc1cc(N(C)C)ccc1C21OC(=O)c2ccc(C(=O)*)cc21; X1 = NC(=O)NC(COCCCN[*:1])(COCCCN[*:2])COCCCN[*:3]; NBD = O=[N+]([O-])c1ccc(*)c2nonc12; dDab = NCC[C@@H](N)C(=O)O; Nle = CCCC[C@H](N)C(=O)O; Dab = NCC[C@H](N)C(=O)O; AEEA = NCCOCCOCC(=O)O; ξDab = NCCC(N)C(=O)O; ξK = NCCCCC(N)C(=O)O; ξV = CC(C)C(N)C(=O)O; Ahx = NCCCCCC(=O)O; ξP = O=C(O)C1CCCN1; ξA = CC(N)C(=O)O

Series [1] is described as follows: Stability in saline or ALI BALF by MALDI-TOF MS / FTMS. The conditions noted are these: incubated 30 minutes. Here is the method:
Secondly we assessed stability of the probes in BALF from patients with ALI by FTMS and MALDI-TOF MS analysis. NBD-UBINle, NBD-UBIdend and NBD-PMX were incubated for 30 minutes with BALF (FIG. 13).
In vitro labelling was assessed on benchtop confocal in the presence of compound with bacteria and labelling was compared to NBD-UBINle which served as a reference control for bacterial labelling. […] For the ex vivo and in vivo ovine lung experiments each compound was assessed in a control lung segment (instilled with 2 ml PBS) or a bacterial segment (instilled with 2 ml of 2 optical density of bacteria). Following bacterial instillation, the compound was administered to the segment of interest and this was imaged by probe based FCFM.
Probe was added to saline or pooled BALF from patients with ALI incubated for 30 minutes. A ZipTip (C-18, 0.2 μL) with 5 μL MeCN (with 0.1% TFA as an additive) followed by 20 μL of H2O was washed. The ZipTip was loaded with the sample, washed and eluted into 5 μL of 80% aq. MeCN (with 0.1% TFA as an additive). The sample was analysed by MALDI-TOF (PerSeptive Biosystems Voyager DE™STR MALDI-TOF mass spectrometer (Applied Biosystems, Foster City, Calif.)).

In series [2] the target is T1, human neutrophil elastase (HNE) (Homo sapiens, UniProt P08246).
T1 construct: endogenous in cells; host or cells: isolated human neutrophils (co-culture with MSSA or P. aeruginosa)
T1 sequence (P08246 30-267): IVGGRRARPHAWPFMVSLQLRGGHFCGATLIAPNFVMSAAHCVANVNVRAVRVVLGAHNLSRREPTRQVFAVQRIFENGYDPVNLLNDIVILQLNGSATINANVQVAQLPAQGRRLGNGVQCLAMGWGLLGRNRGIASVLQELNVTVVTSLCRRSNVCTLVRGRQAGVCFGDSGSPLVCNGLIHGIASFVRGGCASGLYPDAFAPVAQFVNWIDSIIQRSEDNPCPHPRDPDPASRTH
Put plainly: Elastase dependent bacterial labelling in co-culture of bacteria and neutrophils. The series is classed as cell-based. The conditions noted are these: for labelling of activated neutrophils: TAMRA signal; for elastase dependent bacterial labelling: bacteria with neutrophils. An excerpt: A first example of elastase sensitive probes (shown schematically in FIG. 16A) comprises methyl red (acting as a dark quencher) connected via the peptide sequence AAPV (SEQ. ID NO: 9). (acting as the enzyme cleavable peptide sequence of the cleavable linker) to 7-nitrobenz-2-oxa-1,3-diazole (NBD) and the ubiquicidin fragment UBI29-41 (together acting as the probe element). Accordingly, the NBD fluorescence is quenched by the methyl red and no fluorescent signal will be observed (i.e. the methyl red and NBD are acting as a FRET pair) and therefore, whether or not the probe is bound to any bacteria that may be present in the target area via UBI29-41, no signal is observed using confocal microscopy.
When the probe is in the presence of human neutrophil elastase (HNE), such as in inflamed tissue, HNE cleaves the peptide sequence of the linker, to thereby free the probe element from the methyl red quencher. Accordingly, the NBD fluorophore is no longer quenched and produces a fluorescent signal. In addition, due to the environmental sensitivity of the NBD, the signal produced is greatly amplified if the NBD is in a hydrophobic environment, such as within a cell membrane.

The target of series [3] is elastase (Homo sapiens, UniProt P08246). The settings on record: ex 525 nm, Em 580 nm.

On to `CCCC[C@H](NC(=O)[C@H](CCCNC(=N)N)NC(=O)[C@H](CCCNC(=N)N)NC(=O)[C@H](CCCCN)NC(=O)[C@H](C)NC(=O)[C@H](CCCNC(=N)N)NC(=O)CNC(=O)[C@@H](NC(=O)CCCCCNc1ccc([N+](=O)[O-])c2nonc12)[C@@H](C)O)C(=O)N[C@@H](CCC(N)=O)C(=O)N[C@@H](Cc1ccc(O)cc1)C(=O)N[C@@H](CC(N)=O)C(=O)N[C@@H](CCCNC(=N)N)C(=O)N[C@@H](CCCNC(=N)N)C(N)=O` [NBD-UBINle] ({NBD-Ahx}-TGRAKRR[Nle]QYNRR-NH2; N-terminus and C-terminus assumed), for which the “stability in BALF from patients with ALI” value in series [1] is given as “degradation; also recorded: instability in lavage fluid”.
Take `CC(C)C[C@H]1NC(=O)[C@@H](Cc2ccccc2)NC(=O)[C@@H](CCN)NC(=O)C(NC(=O)[C@H](CCN)NC(=O)[C@@H](NC(=O)COCCOCCNC(=O)C(CCCCNc2ccc([N+](=O)[O-])c3nonc23)NC(=O)C(NC(=O)C2CCCN2C(=O)C(C)NC(=O)C(C)NC(=O)c2ccc3c(c2)C2(OC3=O)c3ccc(N(C)C)cc3Oc3cc(N(C)C)ccc32)C(C)C)[C@@H](C)O)CCNC(=O)[C@@H]([C@H](C)O)NC(=O)[C@H](CCN)NC(=O)[C@H](CCN)NC1=O` (stereo partly drawn) [TAMRA-AAPV-NBD-PMX] (X2-[ξA][ξA][ξP][ξV][ξK](NBD)[AEEA]T[Dab][ξDab][dDab][dF][dL][Dab][Dab][dT]; lactam 9-C): the “bacterial labelling with unactivated neutrophils” value in series [2] (P. aeruginosa) is on record as “no labelling in the presence of unactivated neutrophils”. Further, in series [2], the “labelling of activated neutrophils” value is given as “labelling of activated neutrophils in an elastase independent manner” and the “elastase dependent bacterial labelling” value was “bacterial labelling in an elastase dependent manner”. Also, in series [2] (listed as Example 2), the “labelling of activated neutrophils” value is given as “labelled by the TAMRA moiety” and the “elastase dependent bacterial labelling” value is “the bacteria are labelled by the probe element”. In addition, in series [3], the “TAMRA fluorescence increase with elastase inhibitor” value was “inhibited with an elastase inhibitor”. The “fluorescence of TAMRA following cleavage” value in series [3] (elastase) was “increase in fluorescence”.
Regarding “Example 1: methyl red dark quencher connected via AAPV to NBD and ubiquicidin fragment UBI29-41 (also: methyl red quencher attached, side not given here, NBD and ubiquicidin fragment UBI29-41 attached, side not given here)”, the “elastase dependent bacterial labelling” value in series [2] was “cleaved by neutrophil derived HNE and to label bacteria”. The “bacterial labelling with elastase inhibitor” value in series [2] (sivelestat added to the medium) is on record as “no labelling was observed”.
As to “I: {NBD-AEEA}-TGRAKRR[Nle]QYNRR[AEEA] / II: {NBD-AEEA}-TGRAKRR[Nle]QYNRR[AEEA] / III: {NBD-AEEA}-TGRAKRR[Nle]QYNRR[AEEA] (linker I:C-II:C-III:C via X1) [NBD-UBIdend]”, the “stability in BALF from patients with ALI” value in series [1] is on record as “remains stable; also recorded: demonstrate stability”.
